Values joined by “and” are separate entries in the source; they are usually repeats but may differ in a detail not shown here. Equal values may be shown once. “Also recorded” adds a separate entry of the source.
What was measured:
Assay type in all cases: biochemical
[1] = ORAC(fl) assay (fluorescein, method of Ou et al.); settings: mixed at different ratios with quercetin, standard acetone:water
Procedure: Prior Art Method of Measuring Antioxidant Activity for Comparison. For the ORAC(fl) assay, the method of Ou et al. (Ou , B., Hampsch-Woodill, M. and Prior, R. L., J. Agric. Food Chem. 2001, 49, 4619-4626) was followed. Differences from the Ou procedure as published included the speed of the orbital shaker (Ou, 400 rpm; herein, 280 rpm), and the centrifuge speed (Ou, 14,000 rpm, 15 min; herein, 3200 rpm, 15 min and the length of the assay (Ou, 30 min; herein, 100 min). Fluorescein, sodium salt, was obtained from Aldrich (Milwaukee, Wis.). For the Ou method, a standard amount of fluorescein is added to an antioxidant product being tested, and the beginning level of fluorescence is measured. A free radical initiator is added, and the time and degree of disappearance of fluorescence are measured. Trolox®, 6-Hydroxy-2,5,7,8-tetramethylchroman-2-carboxylic Acid, is a cell-permeable, water-soluble derivative of vitamin E with potent antioxidant properties. Trolox® prevents peroxynitrite-mediated oxidative stress and apoptosis in rat thymocytes and is a synthetic antioxidant that is consistent from lot-to-lot and is used as the standard and run for comparison with each sample. A blank (control) used in calculations of the ORAC(o) value for each samples may be included in each run. Fluorescence vs. time is plotted. The blank (control) is subtracted from every curve. […]

ORAC(fl-lipo) assay = assay: ORAC(fl-lipo) assay
From the text: FIGS. 12A and 12B are graphs of ORAC(fl-lipo) results using mixed-tocopherol and the relative AUC results using the solvent/water/detergent solution to dissolve the sample and detect both lipohilic and lipophobic anti-oxidant capacity.

[2] = ORAC(o) assay (dissolved oxygen, oxygen radical absorbance capacity)
Procedure: Method of Measuring Antioxidant Activity. In operation, the ORAC(o) assay of the present invention was used to evaluate antioxidant compositions, combinations and the like of solutions against a target molecule (linoleic acid) with oxygen present at equilibrium with the air. A free radical initiator is added and the time it takes for oxygen to disappear is measured, yielding the rate of disappearance. Trolox® is used as the standard, and a blank is run as a control. Amount of dissolved oxygen vs. time is plotted allowing direct comparison of net areas under the curve. A detailed method is as follows: Buffers (K2HPO4 (F.W. 174.2), NaH2PO4 (FW 120.0)) were obtained from Sigma (St. Louis, Mo.). Linoleic acid 99%, Trolox® (6-hydroxy-2,5,7,8-tetramethylchroman-2-carboxylic acid) 97%, TWEEN® 20, and 2,2'-azobis (2-methylpropionamidine) dihydrochloride 97% (AAPH), were obtained from Aldrich (Milwaukee, Wis.). HPLC grade acetone was obtained from Fisher (Hampton, […] biological oxygen meter was obtained from YSI (Yellow Springs, Ohio) and used according to the manufacturer's specifications. ORAC(o) Method. The following stock solutions were used. […] Weigh 65.33 g into 500 mL of volumetric flask, and add dH20 to the mark. Concentration is 750 mM. Store 750 mM K2HPO4 stock solution in a refrigerator (2 to 8° C.) equipped with a calibrated thermometer. Target temperature is 4° C. 750 mM NaH2PO4 (FW 120.0); Weigh 45.00 g into 500 mL of volumetric flask, and add dH20 to the mark. Concentration is 750 mM. Store 750 mM NaH2PO4 stock solution in a refrigerator (2 to 8° C.) equipped with a calibrated thermometer. Target temperature is 4° C. Mix 40 ml of 750 mM K2HPO4 stock solution and 10 ml of 750 mM NaH2PO4 stock solution (4 to 1 ratio). […] Store stock solution in a refrigerator (2 to 8° C.) equipped with a calibrated thermometer. Target temperature is 4° C. Dilute mixture with dH20 (1:9) to make working solution of ORAC buffer, and measure pH. It should be 7.4. Keep covered at room temperature until ready to use. Tween Preparation. Weigh out 10 g of Tween 20, and add 90 g of deionized water. Cover and stir the mixture overnight. Tween stock solution keeps for one week. Keep on countertop. Solvent Preparation. Mix 25 mL of acetone, 25 mL of deionized water, and 25 mL of Tween 20. Use this solvent to prepare samples. Before a run is performed: the probe should be inspected for damage paying particular attention to the membrane, replace if needed. Probes should be stored with the tips in deionized water. Only one probe and one reaction chamber should be used for this assay. Run a blank and Trolox® (at 10 μg/ml or 0.03995 μmol/ml) every 8 hours. […] The sample concentration and Trolox® concentration should be the same. The dilutions are prepared by weighing out 1 mg of sample and adding 1 ml of solvent to perform the initial extraction. Shake for one hour, place 0.5 ml of the initial extraction solution in a glass scintillation vial, and then add 4.5 ml of solvent, making the first dilution. Vortex the first dilution for about 30 seconds. Its concentration is 0.1 mg/ml or 100 ppm. Take 0.5 ml of the first dilution, put it into another glass scintillation vial, and then add 4.5 ml of solvent, vortex for about 30 seconds, to yield a concentration of 0.01 mg/ml or 10 ppm. Take 0.5 ml of the vial sample and put it into another glass scintillation vial, and then add 4.5 ml of solvent, vortex for about 30 seconds, to yield a concentration of […] are placed in a 4° C. refrigerator. In a 37° C. water bath allow linoleic acid to thaw, and prepare linoleic acid solution (with minimal light) by adding 0.18 mL Tween stock solution, 0.18 mL buffer, and 0.44 mL deionized water to 70.8 mg linoleic acid. Keep solution tube wrapped in foil. Make linoleic acid solution fresh every 8 hours. To prepare the oxygen radical generator, weigh 67.8 mg of AAPH, and dissolve in 0.9 mL buffer. Keep AAPH refrigerated, it may be used for up to eight hours. Shake for 1 hour. […]

For Cc1c(C)c2c(c(C)c1O)CC[C@@](C)(CCC[C@H](C)CCC[C@H](C)CCCC(C)C)O2 [α-tocopherol], the “contribution to AO activity” value [1] was “no contribution to AO activity; also recorded: no statistically significant activity could be detected” and the “ORAC(fl-lipo) AUC, acetone:water:Tween-20 versus acetone:water” value (ORAC(fl-lipo) assay) was “large increase in the AUC”.

For O=c1c(O)c(-c2ccc(O)c(O)c2)oc2cc(O)cc(O)c12 [quercetin], the “Area Under Curve (AUC), 5 Day Mean” value ([2]; quercetin sample 10 μg/mL) was 203.7, the “Area under curve, 5 Run Mean” value ([2]; quercetin sample 10 μg/mL) was 202.9 and the “Area Under Curve (AUC), 5 day trial for precision” value ([2]; quercetin sample 10 μg/mL, each day average of 3 runs) was 202.7 and 212.9 and 187 and 202.9 and 213.1. For the same molecule, the “Area under curve, single day trial for precision” value ([2]; quercetin sample 10 μg/mL, separate runs) was 207.4 and 198.2 and 205 and 201.6 and 202.1, the “Area Under Curve” value ([2]; sample 1 μg/ml) was 124.6 and the “Area Under Curve” value ([2]; sample 10 μg/ml) was 209.4. For the same molecule, the “Area Under Curve” value ([2]; sample 100 μg/ml) was 693.6, the “Area Under Curve” value ([2]; sample 500 μg/ml) was 2328 and the “Area Under Curve” value ([2]; sample 1000 μg/ml) was 2870.
